Series [1] concerns filamentous fungi. As to the kind of experiment: MIC / MFC for filamentous fungi, all strains. In kind it is cell-based, Aspergillus, Fusarium, Mucor, Penicillium. The conditions noted are these: versus susceptible strains; read-out: Mean MIC values. An outline of the steps: (§1)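 Inoculum was conidia from 72-hour Sabouraud agar cultures, washed off with Sabouraud medium plus Tween 80 (one drop per 10 ml) and used at 5.0×10^4 CFU/ml. The procedure followed the yeast-like fungi method, and MIC and MFC were read as reported previously.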

For series [2], the system named is Candida albicans (Ca 2). As to the kind of experiment: MIC for yeast and yeast-like strains. In kind it is cell-based. To be noted: 48 hours, 35° C., read-out: Minimal Inhibitory Concentration (MIC). An outline of the steps:
(§2)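 Broth microdilution in Yeast Nitrogen Base with 0.15% asparagine and 1.0% glucose, buffered with 0.165 M MOPS. Inocula from overnight Sabouraud broth cultures (48 h for Cryptococcus), final approx. 5.0×10^4 CFU/ml, mixed with equal volume of compound solution.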

The subject of series [3] is Candida krusei (ISS 1). As to the kind of experiment: MIC for yeast and yeast-like strains. In kind it is cell-based. To be noted: Pichia kudriavzevii; 48 hours, 35° C.; read-out: Minimal Inhibitory Concentration (MIC). An outline of the steps: as §2
For series [4], the system named is Candida albicans (562). As to the kind of experiment: MIC for yeast and yeast-like strains. To be noted: 48 hours, 35° C., read-out: Minimal Inhibitory Concentration (MIC). The format is cell-based. Put shortly:
as §2

Series [5] relates to Candida tropicalis (5705). As to the kind of experiment: MIC for yeast and yeast-like strains. The conditions noted are these: 48 hours, 35° C., read-out: Minimal Inhibitory Concentration (MIC). The format is cell-based. Put shortly: as §2
The subject of series [6] is Candida albicans (A 54). As to the kind of experiment: MIC for yeast and yeast-like strains. In kind it is cell-based. The conditions noted are these: 48 hours, 35° C., read-out: Minimal Inhibitory Concentration (MIC). Put shortly: as §2
The subject of series [7] is Saccharomyces cerevisiae (ATCC 7752). As to the kind of experiment: MIC for yeast and yeast-like strains. The format is cell-based. To be noted: ATCC7752, 48 hours, 35° C., read-out: Minimal Inhibitory Concentration (MIC). An outline of the steps:
as §2

Series [8] deals with dermatophytic fungi. As to the kind of experiment: MIC / MFC for dermatophytic fungi, all strains. In kind it is cell-based, Trichophyton, Microsporum, Epidermophyton. The conditions noted are these: versus susceptible strains. The protocol:
The following strains were used: Trichophyton menthagrophytes ATCC 9533, Trichophyton rubrum IHEM 4274, Microsporum canis IHEM 3522, Epydermophyton floccosum IHEM 3495. The tested substances were: ST 722, ST 1033, ST 1037, ST 1050, ST 1051, ST 1052,. ST 1053.
The assay was performed following the same procedure described for the yeasts, by using 7-day fungi cultures grown at 30° C. in Potato Dextrose agar, and harvested with Sabouraud broth and Tween 80 (0.5%).
After washing with Yeast Nitrogen Base, supplemented with asparagine and glucose (as carbon source), the fungal suspension was fragmented using a tissue grinder until the largest clumps or aggregates were undetectable within the grinder. This fungal suspension was then appropriately diluted in YNB to yield a concentration of 2.0×10^5 infective particles/ml (small mycelium fragments, micro-and macroaleuriospores).
Volumes of 100 μl both of the fungal suspensions and substance solutions, two-fold serially diluted in assay medium, were distributed into each well of a microtiter plate (96 wells, round bottom), which was incubated at 35° C. for 96 hours.

Series [9] relates to Penicillium sp. (1302). As to the kind of experiment: MIC for filamentous fungi. The format is cell-based. To be noted: read-out: Minimal Inhibitory Concentration (MIC). An outline of the steps: as §1
Series [10] relates to Fusarium sp. (ISS 1). As to the kind of experiment: MIC for filamentous fungi. The conditions noted are these: read-out: Minimal Inhibitory Concentration (MIC). The format is cell-based. An outline of the steps: as §1
Series [11] concerns Aspergillus niger (ATCC 16404). As to the kind of experiment: MIC for filamentous fungi. To be noted: ATCC16404, read-out: Minimal Inhibitory Concentration (MIC). The format is cell-based. An outline of the steps: as §1
In series [12] the test system is peritoneal macrophages. As to the kind of experiment: Test 4: peritoneal macrophage number in mice. In kind it is in vivo, mice (male B6 D2 F1). The conditions noted are these: 100 mg/kg/day oral, 5 consecutive days. Here is the method: Test 4: Evaluation of the effect of repeated oral administrations of ST 722 on the peritoneal macrophage number in mice.
Male B6 D2 F1 mice (C. River) aged 10 weeks (6 animals each group) were orally treated with the substance ST 722 at the dose of 100 mg/kg/day for 5 consecutive days. Twenty-four hours after the last administration, the animals were sacrificed, the peritoneal exudate cells (PEC) collected and the macrophage number determined.

Series [13] relates to C. albicans PG. As to the kind of experiment: Systemic experimental infection with Candida albicans in mice. The format is in vivo, Candida albicans in mice (male CD1). The conditions noted are these: for % Mortality / Dead/Total: 60 days follow-up; for MST (mean survival time): range of variation in brackets, footnote p ≤ 0.05 (MannWithney "U" test), mark lost. Here is the method: Male CD1 mice (C. River) aged 6 or 13 weeks were used (12-15 animals per group).
The pathogenic strain of Candida utilized, i.e. C. albicans PG, was able, when inoculated intravenously, to cause multiple renal lesions and systemic dissemination, provoking death of the animals within 40 days from the challenge.
A broth culture in Sabouraud broth is prepared from a 48-hour agar slant culture.
After incubation for 48 hours at 37° C., the broth culture is first washed 3 times with sterile saline, then adjusted to a concentration of 2.0×10^6 cells/ml. Volumes of 0.25 ml of this suspension are i.v. injected into the animals, with a resulting infective dose approximately corresponding to DL100.
ST 722 was administered per os following two different protocols:
I) 100 mg/kg administered at +2, +12, +24, +36 and +48 hours (i.e. 5 administrations in two days) with respect to the challenge.
II) 100 mg/kg administered twice daily on 6 consecutive days (i.e. 12 adimistrations) starting from day -2 to day +3 with respect to the day of inoculation (day 0).
After the challenge, the animals were followed up for 60 days, and the percent mortality as well as the mean survival time (MST) were evaluated. The statistical significance of the results was evaluated by means of Fisher "exact test" and Mann-Withney "U" test, respectively.

Setting [14] is: protocol I: 100 mg/kg per os at +2, +12, +24, +36, +48 hours.
Where [15] appears, read: protocol II: 100 mg/kg per os twice daily, day -2 to day +3.

`CCCCCCCCCCCOC(=O)C[C@H](C[N+](C)(C)C)OC(=O)CC(C)C` [ST 722, isovaleryl-L-carnitine undecyl ester chloride]: the MIC came out at 16.4 µg/mL in [1]; 1.56 µg/mL in series [2]; 3.12 µg/mL in series [3]; 3.12 µg/mL in series [4]; 3.12 µg/mL in [5]; 3.12 µg/mL in series [6]. The MIC in [7] is 3.12 µg/mL; in series [8], 28.1 µg/mL; in series [9], 12.5 µg/mL; in series [10] it was 6.25 µg/mL; in series [11] it was 12.5 µg/mL. For the same compound, in [12], the “toxic effect in PEC macrophage population” value is given as “No toxic effect has been observed”. The “PEC Mo” value in series [12] (6 pooled samples) is given as 63%. In addition, in series [12] (± S.E., 6 animals), the Body weight was determined as 28.13 ± 1.30 g. In addition, in series [12] (versus control), the “increase in the peritoneal macrophages number” value is listed as “about 60%”. Moreover, the “protective effect” value in series [13] (protocol I and II, per os) is “only in terms of MST prolongation”. The “% Mortality” value in series [13] (setting [14]) and in [13] (setting [15]) was 71.4% each time. For the same compound, the Dead/Total in series [13] (setting [14]) and in series [13] (setting [15]) was 10/14 each time. For the same compound, the results for the “MST (mean survival time)” value in [13] (protocol I) and in [13] (protocol II) were 37 (25-≥60) days and 44 (32-≥60) days, respectively. For the same compound, in series [13] (protocol II, per os), the “percent mortality” value was “completely unaffected”.

(Values after patent publication US5525627A, “Esters of acyl carnitines with long-chain aliphatic alcohols and pharmaceutical compositions containing same having antimycotic activity” (Sigma-Tau Industrie Farmaceutiche Riunite S.p.A., priority 1992, dated 1996).)
